# Entries after “also recorded” stand apart in the source; their conditions may differ.
# What was measured:
# Type in all cases: cell-based
# [1] = test system: LNCaP prostate cancer cell line; assay: Cell count by Trypan blue exclusion, LNCaP cancer cells
# Description: The LNCaP prostate cancer cell line, deposited in the ATCC under No. CRL-1740, was used.
# The cell culture medium was RPMI 1640 complete growth medium (ATCC No. 30-2001), containing 2 mM L-glutamine, 10 mM HEPES and 1.0 mM sodium pyruvate, to which the following were added: • 1) sodium carbonate and glucose in amounts sufficient to obtain a sodium carbonate concentration of 20 mM and a glucose concentration of 25 mM, • 2) […] by volume of a mixture of antibiotics (10 μg/ml of gentamycin, 100 IU of penicillin, 100 μg/ml of streptomycin), and • 3) 10% by volume of fetal calf serum.
# (§1) For the dose-dependence studies, the cells (50% confluent) were treated with ATA-Zn at the concentrations of 10^−3, 10^−4, 10^−5, 10^−6, 10^−7, 10^−8 and 10^−9M, for 24 hours, 48 hours and 72 hours in their respective growth medium. After 48 h of treatment, the cells were harvested and counted in the pellet. In parallel, the cell lysates were prepared in order to extract the mRNA for RT-Q-PCR and Western blotting.
# (§2) In order to evaluate the number of cells, the cell pellets were mixed with 1 ml of their respective medium and the cell viability and the number of cells were evaluated by means of a Trypan blue exclusion test.
# The viable cells and the non-viable cells were counted after Trypan blue exclusion. […] The mortality evolved in the opposite direction, with a maximum increase of about 50%. The concentration of 10^−3M was toxic. The results obtained are reported on the graphs of FIGS. 1a and 1b, which give the percentage of cancer cells relative to the control (cell culture without ATA-Zn) as a function of the concentration of ATA-Zn. FIG. 1a relates to the viable cells and FIG. 1b relates to the non-viable cells.
# [2] = test system: Normal prostate epithelial cells (PrECs); assay: Cell count by Trypan blue exclusion, normal PrECs
# Description: Normal prostate epithelial cells (PrECs) and the PrEC growth medium sold by the company Cambrex Bioscience (Walkersville, Md.) were used by way of comparison.
# as §1, §2
# cyclin-D1 mRNA [3] = assay: Cyclin-D1 mRNA by RT-Q-PCR in LNCaP cells; details: 10^−5-10^−9M, after 24 hours of exposure
# Description: as §1
# (§3) The mRNA was extracted from the cells in culture using the “SV Total RNA isolation” kit from the company Promega and according to the procedure hereinafter:
# (§4) A reverse transcription of the RNA was then carried out using the ready to go kit (kit known as “Ready To Go, You Prime First Strand Beads” commercially available from Amersham Biosciences, Piscataway, United States) in accordance with the supplier's instructions using 3 μg of RNA.
# (§5) The “LightCycler-Fast Start DNA Master SYBR Green I” test commercially available from Roche Diagnostics, Meylan, France, was used to quantify the gene expression by means of a real-time polymerase chain reaction (PCR). […]
# The amount of cyclin-D1 mRNA was measured by RT-Q-PCR according to the procedure previously described in the section entitled “Materials and methods”. […]
# cyclin-D1 mRNA [4] = assay: Cyclin-D1 mRNA by RT-Q-PCR in normal cells; details: normal cells (PrECs), 24 hours
# Description: as §1, §3, §4
# (§6) The “LightCycler-Fast Start DNA Master SYBR Green I” test commercially available from Roche Diagnostics, Meylan, France, was used to quantify the gene expression by means of a real-time polymerase chain reaction (PCR). The PCR (program: 95° C., 30 seconds; 40 cycles: 95° C., 5 seconds; 60° C., 35 seconds) was carried out using a “Mastercycler ep realplex” apparatus sold by the company Eppendorf, Hamburg, Germany.
# (§7) The expression of the target gene was standardized relative to the GAPDH housekeeping gene. […]
# Bax/Bcl-2 ratio = assay: Bax/Bcl-2 mRNA ratio by RT-Q-PCR in LNCaP cells; details: 10^−5-10^−9M, 48 hours
# Description: as §1, §3, §4, §5
# LNCaP cells were incubated with various concentrations of ATA-Zn (10^−5-10^−9M) for 48 hours. The change in the synthesis of Bax mRNA and Bcl-2 mRNA was measured by RT-Q-PCR according to the procedure described previously in the section entitled “Materials and methods”.
# Bax and Bcl-2 = assay: Bax/Bcl-2 mRNA by RT-Q-PCR in PrECs; details: Bax and Bcl-2 base amount too low for PCR amplification, a conclusion
# Description: as §1, §3, §4, §6, §7
# SOD-1 protein = SOD-1 protein by Western blotting in LNCaP cells; details: 48 hours, standardized relative to actin
# Description: (§8) The cells were lysed in the buffer for the radioimmunoprecipitation test, having the composition hereinafter:
# (§9) The proteins were then separated by SDS-PAGE and were transferred onto a Hybond-P PVDF membrane (Amersham Biosciences, Pantin, France). The membranes were incubated for 1 hour at ambient temperature with a blocking solution consisting of skimmed milk powder at 5% in TBS-T buffer (50 mM Tris-HCl, pH 8.0, 150 mM NaCl, Tween-20 at 0.1%).
# (§10) The membranes were then incubated with rabbit primary antibodies directed against cyclin-D1 (No. 29785); the markers Bax (No. 1063.1) and BCL-2 (No. 1017-1); Nrf-2 (No. 2178-1) and SOD-1 (No. 2018-1) all sold by the company Epitomies under the references indicated above, and the A2103 anti-actin, N-terminal, antibodies sold by the company Sigma-Aldrich (Saint Quentin Fallavier, France) in the blocking solution overnight at 4° C. The said antibodies were diluted in accordance with the manufacturer's instructions to 1/1000. The anti-actin antibodies served to standardize the membranes. […]
# (§11) LNCaP cells were incubated with a range of ATA-Zn concentrations for 48 hours. The amount of Nrf-2 and SOD-1 proteins were then measured by Western blotting. The quantification was carried out with the “Quantity One” software and the results were standardized relative to the actin data. […]
# Nrf-2 protein = Nrf-2 protein by Western blotting in LNCaP cells; details: 48 hours, standardized relative to actin
# Description: as §8, §9, §10, §11
substance,measurement,setting,value
zinc N-acetyltaurinate [ATA-Zn],antiproliferative effect / number of cells,"[1]; LNCaP cancer cells of the prostate, 48 hours, each dose",antiproliferative effect; also recorded: reduced the number of cells at each dose
same,toxicity at the concentration of 10^−3M,"[1]; LNCaP, 10^−3M",toxic
same,maximum reduction of the number of cells,"[1]; LNCaP, 48 hours of incubation, highest concentration (10^−4), relative to control",25%
same,maximum increase of mortality (non-viable cells),"[1]; LNCaP, 48 hours of incubation, relative to control",about 50%
same,concentrations at which nontoxic,[1]; general statement on the in vitro cell tests,below 10^−3 M
same,toxicity at the dose of 10^−3M,"[2]; PrECs, 10^−3M",toxic
same,state of cells after 72 hours with 10^−3M,"[2]; PrECs, 10^−3M, 72 hours of incubation",completely dead
same,effect on the number of cells,"[2]; normal PrECs, up to 72 hours of incubation, doses below 10^−3M",no effect
same,synthesis of cyclin-D1 mRNA,cyclin-D1 mRNA [3],reduces
same,synthesis of cyclin-D1 mRNA,cyclin-D1 mRNA [4],no effect
same,Bax/Bcl-2 ratio (mRNA),Bax/Bcl-2 ratio,greatly increased
same,apoptosis in normal PrECs,Bax and Bcl-2,not influenced
same,level of the SOD-1 protein,SOD-1 protein,decreases
same,Nrf-2 protein,Nrf-2 protein,repressed
